Literature values as cited in patent US8952001B2, “Amino-heteroaryl derivatives as HCN blockers” (Merck Sharp & Dohme Corp., priority 2009, dated 2015).
Where two headings read alike, the source gives them in different places.

Tests used:
mechanical allodynia [1] = conditions: intraperitoneal administration; Chung/von Frey
allodynia = conditions: rat CFA model of inflammatory pain
[2] = system: ectopic discharges in A-beta and A-delta fibres; conditions: without causing conduction block
[3] = system: nerve injured myelinated DRG
spontaneous pain = conditions: rat, mild thermal injury model
mechanical allodynia [4] = conditions: local administration to the sciatic nerve 4 h after surgery in rats; Brennan model

Compound: CCN(c1ccccc1)c1cc(=NC)n(C)c(C)n1.Cl [ZD 7288]
- mechanical allodynia (mechanical allodynia [1]): dose-dependently reverses mechanical allodynia
- allodynia (allodynia): suppresses allodynia
- firing frequency of ectopic discharges [2]: reduced the firing frequency of ectopic discharges
- spontaneous activity [3]: reduces spontaneous activity
- spontaneous pain (spontaneous pain): blocks spontaneous pain
- mechanical allodynia (mechanical allodynia [4]): attenuates mechanical allodynia
